Test [1] deals with T1, KOP (Homo sapiens, UniProt P41145).
T1 construct: expressed in transfected cells; host or cells: CHO cells (membranes)
As to the kind of experiment: biochemical. To be noted: [3H]U69593, membranes of CHO cells with human receptor. The test is classed as binding.

The target in test [2] is T2, NOP (Homo sapiens, UniProt P41146).
T2 construct: expressed in transfected cells; host or cells: CHO cells (membranes)
As to the kind of experiment: Binding affinity to human NOP receptor transfected into CHO cells ([3H]N/OFQ).

The target of test [3] is T3, MOP (Homo sapiens, UniProt P35372).
T3 construct: expressed in transfected cells; host or cells: CHO cells (membranes)
Kind of test: biochemical. In kind it is binding. The conditions noted are these: [3H]DAMGO, membranes of CHO cells with human receptor.

The target of test [4] is T3, MOP. As to the kind of experiment: [35S]GTPγS binding, MOP. The test is classed as biochemical. The conditions noted are these: 1 h; read-out: % stim MOP. The method, then: (§1) [^35S]GTPγS binding was conducted basically as described by Traynor and Nahorski (Traynor et al., 1995). Cells were scraped from tissue culture dishes into 20 mM Hepes, 1 mM EDTA, then centrifuged at 500×g for 10 min. Cells were resuspended in this buffer and homogenized using a Polytron Homogenizer. The homogenate was centrifuged at 27,000×g for 15 min, and the pellet re suspended in Buffer A, containing: 20 mM Hepes, 10 mM MgCl2, 100 mM NaCl, pH 7.4. The suspension was re centrifuged at 27,000×g and suspended once more in Buffer A. For the binding assay, membranes (8-15 μg protein) were incubated with [^35S]GTPγS (50 pM), GDP (10 μM), and the appropriate compound, in a total volume of 1.0 ml, for 60 min at 25′C. Samples were filtered over glass fiber filters and counted as described for the binding assays. Statistical analysis was conducted using the program Prism®.
(GTPγS is a poorly hydrolysed GTP analogue; its binding reports G protein activation.)

Test [5] has as its target T2, NOP. Kind of test: [35S]GTPγS binding, NOP. To be noted: 1 h; read-out: % stim NOP. The test is classed as biochemical. The method, then:
as §1

Test [6] concerns the target T4, KOPr (Homo sapiens, UniProt P41145).
T4 construct: expressed in transfected cells
Kind of test: [35S]GTPγS binding, KOPr. In kind it is biochemical. The method, then:
as §1

T2 sequence (P41146 whole entry): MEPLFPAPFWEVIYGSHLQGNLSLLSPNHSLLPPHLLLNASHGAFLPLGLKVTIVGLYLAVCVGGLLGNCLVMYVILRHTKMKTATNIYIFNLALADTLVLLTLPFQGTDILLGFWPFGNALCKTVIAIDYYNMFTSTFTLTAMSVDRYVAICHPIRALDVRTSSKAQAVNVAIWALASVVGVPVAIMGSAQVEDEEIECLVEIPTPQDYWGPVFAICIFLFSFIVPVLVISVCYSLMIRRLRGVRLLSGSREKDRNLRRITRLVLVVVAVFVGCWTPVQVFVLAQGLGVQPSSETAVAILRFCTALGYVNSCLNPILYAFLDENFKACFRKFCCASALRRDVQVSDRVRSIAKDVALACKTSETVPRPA
T3 sequence (P35372 whole entry): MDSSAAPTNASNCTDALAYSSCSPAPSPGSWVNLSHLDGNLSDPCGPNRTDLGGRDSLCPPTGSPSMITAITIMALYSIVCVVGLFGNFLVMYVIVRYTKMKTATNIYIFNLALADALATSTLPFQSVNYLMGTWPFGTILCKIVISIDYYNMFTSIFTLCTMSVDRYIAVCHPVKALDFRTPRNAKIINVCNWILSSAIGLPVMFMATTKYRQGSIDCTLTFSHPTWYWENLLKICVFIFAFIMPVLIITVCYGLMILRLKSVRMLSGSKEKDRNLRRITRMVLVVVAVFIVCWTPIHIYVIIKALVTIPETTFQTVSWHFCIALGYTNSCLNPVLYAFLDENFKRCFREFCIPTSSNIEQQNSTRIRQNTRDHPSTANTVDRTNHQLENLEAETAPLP
T4 sequence (P41145 whole entry): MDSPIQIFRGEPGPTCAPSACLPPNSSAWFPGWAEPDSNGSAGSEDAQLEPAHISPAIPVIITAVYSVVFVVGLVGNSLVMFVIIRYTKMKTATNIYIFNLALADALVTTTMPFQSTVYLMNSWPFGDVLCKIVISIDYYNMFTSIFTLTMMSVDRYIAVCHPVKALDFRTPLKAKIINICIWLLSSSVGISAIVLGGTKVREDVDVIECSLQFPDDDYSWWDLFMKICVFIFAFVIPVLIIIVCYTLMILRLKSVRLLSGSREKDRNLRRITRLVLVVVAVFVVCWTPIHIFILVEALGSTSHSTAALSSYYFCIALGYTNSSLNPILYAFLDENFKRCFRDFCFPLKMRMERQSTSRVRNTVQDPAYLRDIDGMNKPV
T1 sequence (P41145 whole entry): as above

As a reminder, the Ki is the equilibrium dissociation constant of an inhibitor or competing ligand from its target. Lower therefore signals a stronger hold on the target. Turning to `Cc1cccc(CC(=O)O[C@@]23CCC(=O)[C@@H]4Oc5c(O)ccc6c5[C@@]42CCN(CC2CC2)C3C6)c1` [Compound 4], the values for the inhibitory constant (Ki) in test [1], in test [2] and in test [3] were 2.8 ± 0.91 nM, 49.9 ± 3.5 nM and 1.91 ± 0.51 nM, respectively. The Emax in test [4] was 40%; in test [5] it was 59%.

As for `O=C(CCc1cccc(Cl)c1)O[C@@]12CCC(=O)[C@@H]3Oc4c(O)ccc5c4[C@@]31CCN(CC1CC1)C2C5` [Compound 17, 14β-(3′-chlorophenylpropanoyl)-17-cyclopropylmethyl-7,8-dihydronoroxymorphinone], the Ki in test [1] turned out to be 0.74 ± 0.05 nM; in test [2], 27 ± 4.9 nM; in test [3], 0.39 ± 0.07 nM. The “stimulation of the KOPr” value in test [6] is “no stimulation”. Besides, the values for the Emax in test [4] and in test [5] were 26% and 22%, respectively.

As for `O=C(CCc1ccc(Cl)cc1)O[C@@]12CCC(=O)[C@@H]3Oc4c(O)ccc5c4[C@@]31CCN(CC1CC1)C2C5` [Compound 16, 14β-(4′-chlorophenylpropanoyl)-17-cyclopropylmethyl-7,8-dihydronoroxymorphinone], the inhibition constant (Ki) is 1.34 ± 0.12 nM in test [1], 45.2 ± 17.5 nM in test [2] and 0.54 ± 0.11 nM in test [3]. Further, the “stimulation of the KOPr” value in test [6] is on record as “no stimulation”. The Emax in test [4] was found to be 21%; in test [5], 41%.

Consider `Cc1ccc(CCC(=O)O[C@@]23CCC(=O)[C@@H]4Oc5c(O)ccc6c5[C@@]42CCN(CC2CC2)C3C6)cc1` [Compound 18, 14β-(4′-methylphenylpropanoyl)-17-cyclopropylmethyl-7,8-dihydronoroxymorphinone], for which the Ki was 1.06 ± 0.4 nM in test [1], 35.8 ± 1.6 nM in test [2] and 0.78 ± 0.22 nM in test [3]. In addition, the Emax was 25% in test [4] and 63% in test [5].

As for `Cc1ccc(CC(=O)O[C@@]23CCC(=O)[C@@H]4Oc5c(O)ccc6c5[C@@]42CCN(CC2CC2)C3C6)cc1` [Compound 2, 14β-(4′-methylphenylacetyl)-17-cyclopropylmethyl-7,8-dihydronoroxymorphinone], the inhibition constant (Ki) came out at 1.56 ± 0.28 nM in test [1], 36.3 ± 4.2 nM in test [2] and 1.87 ± 0.09 nM in test [3]. The figures for the Emax in test [4] and in test [5] were 35% and 22%, respectively.

On to `O=C(Cc1ccc2c(c1)OCO2)O[C@@]12CCC(=O)[C@@H]3Oc4c(O)ccc5c4[C@@]31CCN(CC1CC1)C2C5` [Compound 6, 14β-(3′,4′-dioxymethylenephenylacetyl)-7-cyclopropylmethyl-7,8-dihydronoroxymorphinone], for which the inhibitory constant (Ki) in test [1] was determined as 1.2 ± 0.42 nM; in test [2], 94.3 ± 28 nM; in test [3] it was 0.99 ± 0.35 nM. The Emax in test [4] was found to be 12%; in test [5], 44%.

Regarding `Cc1ccccc1CC(=O)O[C@@]12CCC(=O)[C@@H]3Oc4c(O)ccc5c4[C@@]31CCN(CC1CC1)C2C5` [Compound 3, 14β-(2′-methylphenylacetyl)-17-cyclopropylmethyl-7,8-dihydronoroxymorphinone], the results for the inhibitory constant (Ki) in test [1], in test [2] and in test [3] were 1.69 ± 1.2 nM, 44.1 ± 3.1 nM and 3.59 ± 0.86 nM, respectively. Besides, the Emax in test [4] was determined as 42%; in test [5] it was 21%.

Turning to `COc1cccc(CCC(=O)O[C@@]23CCC(=O)[C@@H]4Oc5c(O)ccc6c5[C@@]42CCN(CC2CC2)C3C6)c1` [Compound 13, 14β-(3′-methoxyphenylpropanoyl)-17-cyclopropylmethyl-78-dihydronoroxymorphinone], the figures for the inhibitory constant (Ki) in test [1], in test [2] and in test [3] were 1.24 ± 0.15 nM, 154 ± 11.5 nM and 1.14 ± 0.18 nM, respectively. Moreover, the “stimulation of the KOPr” value in test [6] was “no stimulation”. The Emax in test [5] worked out at 46%.

For `COc1cccc(CC(=O)O[C@@]23CCC(=O)[C@@H]4Oc5c(O)ccc6c5[C@@]42CCN(CC2CC2)C3C6)c1` [Compound 5, 14β-(3′-methoxyphenylacetyl)-17-cyclopropylmethyl-7,8-dihydronoroxymorphinone], the figures for the inhibition constant (Ki) in test [1], in test [2] and in test [3] were 1.44 ± 0.33 nM, 50.1 ± 2.7 nM and 1.1 ± 0.08 nM, respectively. The Emax in test [4] was 11%; in test [5] it was 36%.

In the case of `O=C(Cc1ccccc1F)O[C@@]12CCC(=O)[C@@H]3Oc4c(O)ccc5c4[C@@]31CCN(CC1CC1)C2C5` [Compound 8, 14β-(2′-fluorophenylacetyl)-17-cyclopropylmethyl-7,8-dihydronoroxymorphinone], the figures for the inhibition constant (Ki) in test [1], in test [2] and in test [3] were 4.55 ± 0.7 nM, 69.7 ± 2.4 nM and 2.59 ± 1.1 nM, respectively. In addition, the Emax in test [4] came to 28%; in test [5] it was 15%.

On to `Cc1ccccc1CCC(=O)O[C@@]12CCC(=O)[C@@H]3Oc4c(O)ccc5c4[C@@]31CCN(CC1CC1)C2C5` [Compound 19, 14β-(2′-methylphenylpropanoyl)-17-cyclopropylmethyl-7,8-dihydronoroxymorphinone], for which the figures for the Ki in test [1], in test [2] and in test [3] were 0.64 ± 0.1 nM, 12.1 ± 2.7 nM and 0.56 ± 0.11 nM, respectively. Moreover, the Emax in test [4] came to 48%; in test [5], 33%.

For the compound `Cc1cccc(CCC(=O)O[C@@]23CCC(=O)[C@@H]4Oc5c(O)ccc6c5[C@@]42CCN(CC2CC2)C3C6)c1` [Compound 15, 14β-(3′-methylphenylpropanoyl)-17-cyclopropylmethyl-7,8-dihydronoroxymorphinone], the Ki in test [1] was found to be 1.56 ± 0.2 nM; in test [2] it was 37.7 ± 2.6 nM; in test [3], 0.91 ± 0.1 nM. Besides, in test [4], the Emax was 23%.

For the compound `O=C(Cc1ccccc1Cl)O[C@@]12CCC(=O)[C@@H]3Oc4c(O)ccc5c4[C@@]31CCN(CC1CC1)C2C5` [Compound 10, 14β-(2′-chlorophenylacetyl)-17-cyclopropylmethyl-7,8-dihydronoroxymorphinone], the results for the Ki in test [1], in test [2] and in test [3] were 1.34 ± 0.5 nM, 32.6 ± 2.3 nM and 4.66 ± 1.8 nM, respectively. Moreover, the Emax in test [4] came out at 39%; in test [5], 50%.

Consider `COc1ccccc1CC(=O)O[C@@]12CCC(=O)[C@@H]3Oc4c(O)ccc5c4[C@@]31CCN(CC1CC1)C2C5` [Compound 7, 14β-(2′-methoxyphenylacetyl)-17-cyclopropylmethyl-7,8-dihydronoroxmorphinone], for which the Ki amounted to 3.52 ± 0.9 nM in test [1], 62.3 ± 4.9 nM in test [2] and 3.77 ± 0.9 nM in test [3]. The Emax stood at 37% in test [4] and 41% in test [5].

`COc1ccc(CCC(=O)O[C@@]23CCC(=O)[C@@H]4Oc5c(O)ccc6c5[C@@]42CCN(CC2CC2)C3C6)cc1` [Compound 12, 14β-(4′-methoxyphenylpropanoyl)-17-cyclopropylmethyl-7,8-dihydronoroxymorphinone]: the Ki in test [1] amounted to 1.96 ± 0.04 nM; in test [2], 766 ± 177 nM; in test [3], 0.91 ± 0.12 nM. Moreover, in test [6], the “stimulation of the KOPr” value is recorded as “no stimulation”. The Emax in test [5] was found to be 52%.

For `COc1ccccc1CCC(=O)O[C@@]12CCC(=O)[C@@H]3Oc4c(O)ccc5c4[C@@]31CCN(CC1CC1)C2C5` [Compound 14, 14β-(2′-methoxyphenylpropanoyl)-17-cyclopropylmethyl-7,8-dihydronoroxymorphinone], the Ki in test [1] is 1.24 ± 0.11 nM; in test [2] it was 120 ± 20.5 nM; in test [3], 1.67 ± 0.42 nM. Further, the “stimulation of the KOPr” value in test [6] is recorded as “no stimulation”. Moreover, in test [5], the Emax was 56%.

`O=C(Cc1ccc(Cl)cc1)O[C@@]12CCC(=O)[C@@H]3Oc4c(O)ccc5c4[C@@]31CCN(CC1CC1)C2C5` [Compound 9, 14β-(4′-chlorophenylacetyl)-17-cyclopropylmethyl-7,8-dihydronoroxymorphinone]: the Ki was 3.95 ± 0.59 nM in test [1], 51.3 ± 14 nM in test [2] and 1.78 ± 0.03 nM in test [3]. For the same compound, the Emax was 8.2% in test [4] and 19% in test [5].

Consider `O=C(Cc1ccccc1)O[C@@]12CCC(=O)[C@@H]3Oc4c(O)ccc5c4[C@@]31CCN(CC1CC1)C2C5` [Compound 1, 14β-phenylacetyl-17-cyclopropylmethyl-7,8-dihydronoroxmorphinone], for which the figures for the Ki in test [1], in test [2] and in test [3] were 1.14 ± 0.46 nM, 127 ± 17 nM and 0.86 ± 0.18 nM, respectively. The Emax came out at 32% in test [4] and 28% in test [5].

The values above are taken from patent US9969746B2, “Opioid compounds and their uses” (THE UNIVERSITY OF BATH, priority 2013, dated 2018).
